Data reported in PubChem BioAssay AID2060358 (Molecular Pharmacology Branch, DTP, NCI, 2025).
pIC50: −log10 of the molar value. Values joined by “and” are separate entries in the source; they are usually repeats but may differ in a detail not shown here. Identical values can stand only once. Active and inactive are the calls of the source. Rule for the calls: active = viability on the fitted dose curve at most 10% of control; inactive = the rest.

Test system: 254851-301-R-J1-PDC spheroids, viability % test/control
Assay: Anticancer human tumor 254851-301-R-J1-PDC patient-derived colon carcinoma cell line growth inhibition [TAK]
Conditions: spheroids with HUVEC and MSC; for viability, T/C: stronger effect = lower value
Excerpt: Combinatorial screen of targeted agents with TAK-243 and ipatasertib in multi-cell type tumor spheroids
A high-throughput screen of multi-cell type tumor spheroids was designed to identify active combinations of targeted small molecules and TAK-243 or ipatasertib. Complex spheroids include a stromal component modeled by human endothelial cells (HUVEC) and fibroblasts modeled by human mesenchymal stem cells (MSCs). The concentration ranges selected for each drug and investigational agent were based upon clinically achievable concentrations if the clinical Cmax of the agent was known.
Compounds. The drugs and investigational agents: TAK-243 (785004), ipatasertib (767898), everolimus (733504), selumetinib (741078), bortezomib (756655), trametinib (758246), ixazomib (758254), vemurafenib (761431), dabrafenib (764134), sapanisertib (764658), alpelisib (765974), and copanlisib (816437), were obtained from the National Cancer Institute (NCI) Developmental Therapeutics Program Chemical Repository. The FDA-approved anticancer drug set is available from the NCI Developmental Therapeutics Program. […] The stock solutions were prepared in dimethyl sulfoxide (DMSO, Sigma-Aldrich, St. Louis, MO, cat. D2650) at 800-fold the tested concentration and stored at -70 degrees C prior to their use. All drugs and investigational agents were tested over a range starting from a high concentration at or near the clinical Cmax and decreasing in half-log increments. If the clinical Cmax for an agent had not been determined, the highest concentration tested was 10 microM.
NCI60 Cell Culture. NCI60 cell lines were obtained from the NCI Developmental Therapeutics Program Tumor Repository. For each lot of cells, the Repository performed Applied Biosystems AmpFLSTR Identifiler testing with PCR amplification to confirm consistency with the published Identifier STR profile for each cell line. Cells were kept in continuous culture for no more than 20 passages. The optimal seeding densities for each of the cell lines at each time point assessed were determined prior to performing the concentration response studies. Briefly, the NCI60 human tumor lines were grown as monolayers in RPMI 1640 medium supplemented with 10% FBS and 2 mmol/L L-glutamine.
An additional 2 lines were from the NCI60 cell line panel including melanomas, MALME-3M and SK-MEL-2. Pooled donor human umbilical vein endothelial cells (HUVEC, Lonza, cat. CC-2519) and human mesenchymal stem cells (hMSC, Lonza, cat. PT-2501) were purchased from Lonza (Walkersville, MD).
PDMR cell lines were grown in complete medium (DC medium): Dulbecco's modified Eagle's medium (DMEM)/F12 supplemented with 5% fetal bovine serum (FBS), 2 mM L-glutamine, 100 U/mL penicillin and 100 µg/ml streptomycin, 0.4 µg/ml hydrocortisone, 10 ng/ml epidermal growth factor (EGF) recombinant human protein, 24 µg/mL adenine, and 0.1 mg/mL primocin. During culture from frozen stock vials, PDMR cells were cultured in the same medium containing 10 µM Y-27632 (see Table 3). The PDCs were cultured in complete DMEM/F12 media without 10 microM Y-27632 dihydrochloride for at least two passages prior to the screen. The pooled donor HUVEC and hMSC were cultured in endothelial cell growth medium 2 (PromoCell, Heidelberg, Germany, cat. C-22011) and mesenchymal stem cell growth medium 2 (PromoCell, cat. C-28009), respectively. For all experiments, HUVEC and hMSC were used at passages </=5.
For the pre-screen, cell seeding densities were determined from a titration spanning the range from 5,000 to 313 cells per well. The mct-spheroids including 60% malignant cells, 25% HUVEC and 15% MSC dispensed as a mixture into U-bottom Ultra-Low Attachment 384-well plates (Corning, NY)
High-throughput Drug Combination Screening.
Prior to their inoculation into 384-well plates, malignant cells, HUVEC, and hMSC were removed from T flasks using TrypLE express (Thermo Fisher Scientific, cat. 12605036) and harvested by centrifugation for 5 min at 233 x g. […]
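Throughout, for pIC50: spheroids exposed to drugs for seven days before viability readout.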
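Throughout, for viability, T/C: spheroids exposed to drugs for seven days before viability readout.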

Question: `COC1CC2CCC(C)C(O)(O2)C(=O)C(=O)N2CCCCC2C(=O)OC(C(C)CC2CCC(OCCO)C(OC)C2)CC(=O)C(C)C=C(C)C(O)C(OC)C(=O)C(C)CC(C)C=CC=CC=C1C` (configuration not stated) + CC(C)NCC(C(=O)N1CCN(c2ncnc3c2C(C)CC3O)CC1)c1ccc(Cl)cc1 was tested. Which pIC50 (curve of first compound, second compound 0.3 µM) did it give?
Answer: < 7.00

Question: And the pIC50 (curve of first compound, second compound 0.949 µM)?
Answer: < 7.00

Question: And the pIC50 (curve of first compound, second compound 3 µM)?
Answer: < 7.00

Question: And the pIC50 (curve of first compound, second compound 9.49 µM)?
Answer: < 7.00

Question: What about the pIC50 (curve of first compound, second compound 30 µM) of the same molecule?
Answer: < 7.00

Question: What about the viability, T/C (second compound 0.3 µM, first compound 0.000316 µM) of the same molecule?
Answer: 108%

Question: And the viability, T/C (second compound 0.3 µM, first compound 0.001 µM)?
Answer: 117%

Question: What about the viability, T/C (second compound 0.3 µM, first compound 0.00316 µM) of the same molecule?
Answer: 99.9%

Question: What about the viability, T/C (second compound 0.3 µM, first compound 0.01 µM) of the same molecule?
Answer: 99.2%

Question: What about the viability, T/C (second compound 0.3 µM, first compound 0.0316 µM) of the same molecule?
Answer: 96.8%

Question: What about the viability, T/C (second compound 0.3 µM, first compound 0.1 µM) of the same molecule?
Answer: 91.7%

Question: What about the viability, T/C (second compound 0.949 µM, first compound 0.000316 µM) of the same molecule?
Answer: 115%

Question: What about the viability, T/C (second compound 0.949 µM, first compound 0.001 µM) of the same molecule?
Answer: 110%

Question: What about the viability, T/C (second compound 0.949 µM, first compound 0.00316 µM) of the same molecule?
Answer: 100%

Question: And the viability, T/C (second compound 0.949 µM, first compound 0.01 µM)?
Answer: 104%

Question: And the viability, T/C (second compound 0.949 µM, first compound 0.0316 µM)?
Answer: 88.1%

Question: What about the viability, T/C (second compound 0.949 µM, first compound 0.1 µM) of the same molecule?
Answer: 91.4%

Question: What about the viability, T/C (second compound 3 µM, first compound 0.000316 µM) of the same molecule?
Answer: 102%

Question: And the viability, T/C (second compound 3 µM, first compound 0.001 µM)?
Answer: 112%

Question: And the viability, T/C (second compound 3 µM, first compound 0.00316 µM)?
Answer: 97%

Question: And the viability, T/C (second compound 3 µM, first compound 0.01 µM)?
Answer: 94.2%

Question: What about the viability, T/C (second compound 3 µM, first compound 0.0316 µM) of the same molecule?
Answer: 92.1%

Question: And the viability, T/C (second compound 3 µM, first compound 0.1 µM)?
Answer: 95.3%

Question: What about the viability, T/C (second compound 9.49 µM, first compound 0.000316 µM) of the same molecule?
Answer: 90.7%

Question: What about the outcome (second compound 9.49 µM, first compound 0.001 µM) of the same molecule?
Answer: inactive

Question: And the viability, T/C (second compound 9.49 µM, first compound 0.00316 µM)?
Answer: 98%

Question: And the viability, T/C (second compound 9.49 µM, first compound 0.01 µM)?
Answer: 95%

Question: And the viability, T/C (second compound 9.49 µM, first compound 0.0316 µM)?
Answer: 96.2%

Question: And the viability, T/C (second compound 9.49 µM, first compound 0.1 µM)?
Answer: 85.1%

Question: And the viability, T/C (second compound 30 µM, first compound 0.000316 µM)?
Answer: 82.7%

Question: What about the viability, T/C (second compound 30 µM, first compound 0.001 µM) of the same molecule?
Answer: 95.2%

Question: What about the viability, T/C (second compound 30 µM, first compound 0.00316 µM) of the same molecule?
Answer: 86.4%

Question: What about the viability, T/C (second compound 30 µM, first compound 0.01 µM) of the same molecule?
Answer: 77%

Question: What about the viability, T/C (second compound 30 µM, first compound 0.0316 µM) of the same molecule?
Answer: 76.4%

Question: What about the viability, T/C (second compound 30 µM, first compound 0.1 µM) of the same molecule?
Answer: 77.2%

Question: How did the viability, T/C (compound 0.000316 µM) turn out when `CC(C)CC(NC(=O)CNC(=O)c1cc(Cl)ccc1Cl)B1OC(=O)CC(CC(=O)O)(C(=O)O)O1` (configuration not stated) was run?
Answer: 110% and 112%

Question: And the viability, T/C (compound 0.001 µM)?
Answer: 110%

Question: What about the viability, T/C (compound 0.00316 µM) of the same molecule?
Answer: 96.8% and 99.7%

Question: And the viability, T/C (compound 0.01 µM)?
Answer: 94.7% and 102%

Question: And the viability, T/C (compound 0.0316 µM)?
Answer: 78.2%

Question: What about the viability, T/C (compound 0.1 µM) of the same molecule?
Answer: 18.6% and 24.4%

Question: And the pIC50 (curve of compound)?
Answer: 7.27 and 7.24
